Assay results as given in PubChem BioAssay (NCI).
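Each compound was tested at five concentrations against cells in 96-well plates for 48 hours. At the TGI there is no net growth.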

How the values were obtained:
Experiment in all cases: NCI tumour cell line growth inhibition, 48 h
[1] = test system: M14 melanoma
[2] = test system: K-562 leukemia
[3] = test system: SNB-19 CNS
[4] = test system: ACHN renal
[5] = test system: NCI-H522 lung
[6] = test system: OVCAR-4 ovarian
[7] = test system: LOX IMVI melanoma
[8] = test system: SF-295 CNS
[9] = test system: BT-549 breast
[10] = test system: OVCAR-5 ovarian

## CCCS(=O)OC1C(C2COC(C)(C)O2)OC2OC(C)(C)OC21 (stereo not given)
[1]
  TGI: 37.8 µM
[2]
  TGI: > 100 µM
[3]
  TGI: 30.8 µM
[4]
  TGI: 26.9 µM
[5]
  TGI: 25.9 µM
[6]
  TGI: 34.7 µM
[7]
  TGI: 21.4 µM
[8]
  TGI: 36.1 µM
[9]
  TGI: 24.5 µM
[10]
  TGI: 26.1 µM

## Cc1cc(C(C)(C)C)c(OCCCN2CCOCC2)c(C(C)(C)C)c1
[1]
  TGI: 31.7 µM
[2]
  TGI: 33.3 µM
[3]
  TGI: 32.1 µM
[4]
  TGI: 31.2 µM
[5]
  TGI: 33.2 µM
[6]
  TGI: 31.5 µM
[7]
  TGI: 36.5 µM
[8]
  TGI: 33.1 µM
[9]
  TGI: 31.9 µM
[10]
  TGI: 33 µM

## COc1cc(/C=C2\N=C(c3ccccc3)N(c3ccc(C(=O)c4ccccc4)cc3N3C(=O)/C(=C/c4cc(OC)c(OC)c(OC)c4)N=C3c3ccccc3)C2=O)cc(OC)c1OC
[1]
  TGI: 33.4 µM
[2]
  TGI: 68.7 µM
[3]
  TGI: > 100 µM
[4]
  TGI: 66 µM
[5]
  TGI: 26.1 µM
[6]
  TGI: > 100 µM
[7]
  TGI: 39.2 µM
[8]
  TGI: 55.9 µM
[9]
  TGI: 66.4 µM
[10]
  TGI: > 100 µM

## NC(=S)NS(=O)(=O)c1ccc(Cl)cc1Cl
[1]
  TGI: > 100 µM
[2]
  TGI: > 100 µM
[3]
  TGI: > 100 µM
[4]
  TGI: > 100 µM
[5]
  TGI: > 100 µM
[6]
  TGI: > 100 µM
[7]
  TGI: > 100 µM
[8]
  TGI: > 100 µM
[9]
  TGI: > 100 µM
[10]
  TGI: > 100 µM

## Cc1ccc2c3ccc4c(c3n(C)c2c1)C(=O)C=CC4=O
[1]
  TGI: > 10 µM
[2]
  TGI: 3.75 µM
[3]
  TGI: > 10 µM
[4]
  TGI: > 10 µM
[5]
  TGI: 4.75 µM
[6]
  TGI: > 7.77 µM
[7]
  TGI: > 10 µM
[8]
  TGI: > 10 µM
[9]
  TGI: > 7.22 µM
[10]
  TGI: > 10 µM

## NC(=S)N1N=C(c2ccc3c(c2)CCC3)CC1c1ccccc1 (stereo not given)
[1]
  TGI: > 100 µM
[2]
  TGI: > 100 µM
[3]
  TGI: > 100 µM
[4]
  TGI: > 100 µM
[5]
  TGI: 24.7 µM
[6]
  TGI: 85.2 µM
[7]
  TGI: > 100 µM
[8]
  TGI: 68.3 µM
[9]
  TGI: 98.3 µM
[10]
  TGI: > 100 µM

## CCOC(=O)C1C2C1C1C(C(=O)OCC)C21 (stereo not given)
[1]
  TGI: > 100 µM
[2]
  TGI: > 100 µM
[3]
  TGI: > 100 µM
[4]
  TGI: > 100 µM
[5]
  TGI: > 100 µM
[6]
  TGI: > 100 µM
[7]
  TGI: > 100 µM
[8]
  TGI: > 100 µM
[9]
  TGI: > 100 µM
[10]
  TGI: > 100 µM

## CN(C)CCCN1C(=O)N(CCCN(C)C)c2c3cc(O)ccc3nc3c([N+](=O)[O-])ccc1c23
[1]
  TGI: 79.1 µM
[2]
  TGI: 23.7 µM
[3]
  TGI: 23.8 µM
[4]
  TGI: 62.6 µM
[5]
  TGI: 20.5 µM
[6]
  TGI: 17.8 µM
[7]
  TGI: 26.6 µM
[8]
  TGI: > 100 µM
[9]
  TGI: 33.7 µM
[10]
  TGI: > 100 µM

## O=c1c2cc(Cl)ccc2n2nnc3ccc(NCCNCCO)c1c32
[1]
  TGI: 2.88 µM
[2]
  TGI: 10.9 µM
[3]
  TGI: 5.07 µM
[4]
  TGI: 2.43 µM
[5]
  TGI: 3.03 µM
[6]
  TGI: 2.52 µM
[7]
  TGI: 1.96 µM
[8]
  TGI: 1.38 µM
[9]
  TGI: 5.22 µM
[10]
  TGI: 3.42 µM

## C=CC(=O)N1C/C(=C\c2ccc(F)cc2)C(=O)/C(=C/c2ccc(F)cc2)C1
[1]
  TGI: 1.38 µM
[2]
  TGI: > 100 µM
[3]
  TGI: 3.72 µM
[4]
  TGI: 0.715 µM
[5]
  TGI: 1.94 µM
[6]
  TGI: 1.85 µM
[7]
  TGI: 0.415 µM
[8]
  TGI: 1.2 µM
[9]
  TGI: 1.2 µM
[10]
  TGI: 2.7 µM

## CCOC(=O)c1c(C)n(CCN2CCN(C)CC2)c2ccc(OC)cc12
[1]
  TGI: 30.8 µM
[2]
  TGI: 45.8 µM
[3]
  TGI: > 100 µM
[4]
  TGI: > 100 µM
[5]
  TGI: > 100 µM
[6]
  TGI: > 100 µM
[7]
  TGI: 35.1 µM
[8]
  TGI: > 100 µM
[9]
  TGI: > 100 µM
[10]
  TGI: > 100 µM

## C1CN(C23OC4(N5CCOCC5)C5C6CC(C7C6C4C72)C53)CCO1 (stereo not given)
[1]
  TGI: > 100 µM
[2]
  TGI: > 100 µM
[3]
  TGI: > 100 µM
[4]
  TGI: > 31.6 µM
[5]
  TGI: > 100 µM
[6]
  TGI: > 100 µM
[7]
  TGI: > 100 µM
[8]
  TGI: > 100 µM
[9]
  TGI: > 100 µM
[10]
  TGI: > 100 µM

## O=[N+]([O-])c1ccc(-c2nc3ccccc3o2)cc1
[1]
  TGI: > 100 µM
[2]
  TGI: > 100 µM
[3]
  TGI: > 100 µM
[4]
  TGI: > 100 µM
[5]
  TGI: > 100 µM
[6]
  TGI: > 100 µM
[7]
  TGI: > 100 µM
[8]
  TGI: > 100 µM
[9]
  TGI: > 100 µM
[10]
  TGI: > 100 µM

## C=C(Cl)C(=C)CCC(Cl)C(C)(C)Cl (stereo not given)
[1]
  TGI: > 100 µM
[2]
  TGI: > 100 µM
[3]
  TGI: > 100 µM
[4]
  TGI: > 100 µM
[5]
  TGI: > 100 µM
[6]
  TGI: > 100 µM
[7]
  TGI: > 100 µM
[8]
  TGI: > 100 µM
[9]
  TGI: > 100 µM
[10]
  TGI: > 100 µM

## CC1=C(C(=O)OC(C)C)C(c2cccc([N+](=O)[O-])c2)C(C(=O)OC(CO[N+](=O)[O-])CO[N+](=O)[O-])=C(C)N1 (stereo not given)
[1]
  TGI: 12.7 µM
[2]
  TGI: > 100 µM
[3]
  TGI: 24.6 µM
[4]
  TGI: > 100 µM
[5]
  TGI: 6.77 µM
[6]
  TGI: 20.9 µM
[7]
  TGI: 11 µM
[8]
  TGI: 0.991 µM
[9]
  TGI: 14.7 µM
[10]
  TGI: 21.5 µM
